We go through 24 compounds from article PMC8533642 (Journal of medicinal chemistry, 2021).

Read-outs that look alike come from different tables or passages of the source. Square brackets hold non-standard residues; d marks the D form. Peptide text beside a SMILES is read from it. Phe(4-I) = N[C@@H](Cc1ccc(I)cc1)C(=O)O; dPhe(4-I) = N[C@H](Cc1ccc(I)cc1)C(=O)O; 2Nal = N[C@@H](Cc1ccc2ccccc2c1)C(=O)O; d2Nal = N[C@H](Cc1ccc2ccccc2c1)C(=O)O

In one series the test system is hMC3R. As to conditions: cited from earlier work.
The test system of another series is hMC4R. The conditions noted are these: read-out: hMC4R IC50; tripeptide SAR study; cited from earlier work.
The test system of the next series is human (h)MC4R. The conditions noted are these: cited from earlier work.
In the next series the test system is hMC1R. The conditions noted are these: cited from earlier work.
Series [1] has as its target T1, mMC4R (Mus musculus, UniProt P56450). As to conditions: miniAGRP(87–120), β-galactosidase reporter gene assay; cited from earlier work.
Series [2] concerns the target T2, mMC3R (Mus musculus, UniProt P33033). As to conditions: miniAGRP(87–120), β-galactosidase reporter gene assay; cited from earlier work. On the technique in general: Reporter assays use an easily measured gene product as a stand-in for the process of interest.
Series [3] can be described thus: Solubility in solvents compatible with RP-HPLC.
In series [4] the target is T1, mMC4R. The conditions noted are these: earlier report; cited from earlier work.
Series [5] has as its target T2, mMC3R. As to conditions: earlier report; cited from earlier work.
Series [6] has as its target T1, mMC4R. The conditions noted are these: cited from earlier work.
A further series deals with mMC1R (Mus musculus, UniProt Q01727). Kind of series: AlphaScreen cAMP agonist assay, HEK293 cells stably expressing mMC1R. The class given is cell-based. As to conditions: for mMC1R agonist activity in words: full agonist = 90% of maximal NDP-MSH signal; for mMC1R partial agonist percentage of receptor activation relative to NDP-MSH: partial agonists. Background: In Alpha technology, singlet oxygen from a donor bead excites a nearby acceptor bead.
Chain of mMC1R (Q01727 whole entry): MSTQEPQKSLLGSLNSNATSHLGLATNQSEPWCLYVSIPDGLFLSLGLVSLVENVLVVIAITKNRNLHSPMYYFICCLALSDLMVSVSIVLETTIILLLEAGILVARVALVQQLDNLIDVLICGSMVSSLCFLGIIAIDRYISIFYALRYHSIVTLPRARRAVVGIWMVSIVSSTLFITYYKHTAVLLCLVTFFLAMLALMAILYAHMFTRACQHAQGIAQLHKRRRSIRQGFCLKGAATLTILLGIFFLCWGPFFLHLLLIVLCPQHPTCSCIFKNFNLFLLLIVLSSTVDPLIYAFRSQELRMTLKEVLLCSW

Series [7] deals with mouse B16-F10 melanoma cells. The conditions noted are these: 30 and 100 μM, 100 nM α-MSH, 72 h; cited from earlier work.
Series [8] has as its target T1, mMC4R. As to conditions: mMC4R versus mMC3R antagonist potency.
For a further series, the target named is mMC5R (Mus musculus, UniProt P41149). Put plainly: AlphaScreen cAMP agonist assay, HEK293 cells stably expressing mMC5R. It is filed as cell-based. As to conditions: for mMC5R EC50: agonist, >100,000 = no agonist activity up to 100 μM; for mMC5R percent maximal stimulatory response (compared to NDP-MSH): at 100 μM.
Chain of mMC5R (P41149 whole entry): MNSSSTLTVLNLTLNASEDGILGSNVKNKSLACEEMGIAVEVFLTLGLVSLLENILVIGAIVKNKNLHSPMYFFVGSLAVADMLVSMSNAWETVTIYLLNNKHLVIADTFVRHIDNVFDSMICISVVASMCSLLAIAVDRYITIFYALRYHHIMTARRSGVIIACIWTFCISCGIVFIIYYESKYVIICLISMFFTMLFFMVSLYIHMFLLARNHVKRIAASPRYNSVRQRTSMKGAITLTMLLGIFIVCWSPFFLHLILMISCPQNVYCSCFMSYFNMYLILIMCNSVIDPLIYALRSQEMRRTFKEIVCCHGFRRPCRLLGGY
A further series deals with MC3R. The conditions noted are these: at 2 μM; cited from earlier work.
Another series relates to MC1R. As to conditions: at 2 μM; cited from earlier work.
The next series has as its system MC4R. The conditions noted are these: at 2 μM; cited from earlier work.
For a further series, the system named is MC5R. The conditions noted are these: cited from earlier work.
The target of series [9] is T2, mMC3R. Kind of series: AlphaScreen cAMP agonist assay, HEK293 cells stably expressing mMC3R. It is filed as cell-based. The conditions noted are these: at 100 μM.
A further series concerns hMC5R. As to conditions: cited from earlier work.
For series [10] the following is noted: compared to a control formulation lacking glycinamide; cited from earlier work.

T1 sequence (P56450 whole entry): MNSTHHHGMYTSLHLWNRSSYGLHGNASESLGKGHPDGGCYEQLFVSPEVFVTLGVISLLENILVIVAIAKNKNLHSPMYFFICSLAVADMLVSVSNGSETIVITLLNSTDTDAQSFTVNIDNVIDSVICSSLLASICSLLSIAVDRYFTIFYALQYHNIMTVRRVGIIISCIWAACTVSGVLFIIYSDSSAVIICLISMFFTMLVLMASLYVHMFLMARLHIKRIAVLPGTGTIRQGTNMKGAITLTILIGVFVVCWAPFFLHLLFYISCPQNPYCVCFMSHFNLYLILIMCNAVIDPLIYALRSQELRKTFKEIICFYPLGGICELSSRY
T2 sequence (P33033 whole entry): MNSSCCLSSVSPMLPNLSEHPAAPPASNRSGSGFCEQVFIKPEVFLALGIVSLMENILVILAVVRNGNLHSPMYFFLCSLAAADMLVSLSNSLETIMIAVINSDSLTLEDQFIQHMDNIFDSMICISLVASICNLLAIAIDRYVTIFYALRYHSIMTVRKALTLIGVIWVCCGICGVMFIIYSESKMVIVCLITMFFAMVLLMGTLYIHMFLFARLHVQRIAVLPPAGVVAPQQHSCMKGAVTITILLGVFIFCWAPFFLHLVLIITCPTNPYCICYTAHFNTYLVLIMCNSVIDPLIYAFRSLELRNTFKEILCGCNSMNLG

Turning to Ac-DNal(2’)-Arg-Nal(2’) [MCL0020], the “binding affinity at hMC3R” value in the series on hMC3R was 1115 nM. Also, the IC50 in the series with hMC4R was 0.0154 µM. Moreover, in the series on human (h)MC4R, the “binding affinity at hMC4R” value is recorded as 11.63 nM. For the same compound, the “concentration up to which radiolabeled NDP-MSH was not displaced at hMC1R” value with hMC1R is more than 10 µM.
Take “miniAGRP(87–120): truncated agouti-related protein melanocortin receptor antagonist (CVRLHESCLGQQVPCCDPCATCYCRFFNAFCYCR; UniProt O00253 87-120, looked up, fragment)”: the “mMC4R pA2” value in the series with mMC4R [1] is recorded as 8.5±0.1. Also, in the series with mMC3R [2], the “mMC3R pA2” value was 8.1±0.1.
Take `CC(=O)N[C@H](Cc1ccc2ccccc2c1)C(=O)N[C@H](Cc1ccc2ccccc2c1)C(=O)N[C@H](Cc1ccc2ccccc2c1)C(=O)N[C@H](Cc1ccc2ccccc2c1)C(N)=O` [Ac-DNal(2’)-DNal(2’)-DNal(2’)-DNal(2’)-NH2] (Ac-[d2Nal][d2Nal][d2Nal][d2Nal]-NH2): the “solubility in solvents compatible with RP-HPLC” value in series [3] is “insoluble”.
For `CC(=O)N[C@H](Cc1ccc2ccccc2c1)C(=O)N[C@@H](CCCNC(=N)N)C(=O)N[C@H](Cc1ccc(I)cc1)C(=O)N[C@H](Cc1ccc2ccccc2c1)C(N)=O` [Peptide 20, Ac-DNal(2’)-Arg-DPhe(pI)-DNal(2’)-NH2] (Ac-[d2Nal]R[dPhe(4-I)][d2Nal]-NH2), the “mMC4R pA2, previously reported” value on mMC4R [4] is on record as 5.9. Besides, on mMC3R [5], the “mMC3R pA2, previously reported” value is 5.6. On mMC4R [6] (earlier report), the “mMC4R partial agonist efficacy, % of the maximal NDP-MSH signal, previously reported” value is on record as 37%. Besides, at mMC1R, the “mMC1R agonist activity in words” value is on record as “full agonist activity”.
On to “Ac-His-DPhe-Arg-Trp-NH2 [reference compound]”, for which the “mMC4R agonist potency in words” value on mMC4R [6] is reported as “nanomolar agonist potency”.
H-RLWG-NH2: the “effect on α-MSH-stimulated melanin production” value in series [7] is “inhibited α-MSH-stimulated melanin production”.
`CC(=O)N[C@H](Cc1ccc2ccccc2c1)C(=O)N[C@@H](CCCNC(=N)N)C(=O)N[C@H](Cc1ccc2ccccc2c1)C(=O)N[C@@H](CCCNC(=N)N)C(N)=O` [Peptide 15, Ac-DNal(2’)-Arg-DNal(2’)-Arg-NH2] (Ac-[d2Nal]R[d2Nal]R-NH2): the “selectivity for the mMC4R over the mMC3R (antagonist)” value (“selectivity for the mMC4R” for short) on mMC4R [8] is given as “more than 150 fold”. The “mMC1R partial agonist percentage of receptor activation relative to NDP-MSH” value at mMC1R was determined as 60 % NDP.
For `CC(=O)N[C@H](Cc1ccc(I)cc1)C(=O)N[C@H](Cc1ccc2ccccc2c1)C(=O)N[C@@H](Cc1c[nH]c2ccccc12)C(=O)N[C@@H](CCCNC(=N)N)C(N)=O` [Peptide 30, Ac-DPhe(pI)-DNal(2’)-Trp-Arg-NH2], the “mMC5R EC50” value on mMC5R is “inactive”.
In the case of Ac-Nle-c[Asp-Oic-DBip-Pip-Trp-Lys]-NH2, in the series on MC3R, the MC3R activation result is “up to 40%”. In the series with MC1R, the MC1R activation entry is on record as “up to 40%”. For the same compound, the MC4R activation entry in the series with MC4R is reported as “up to 40%”. Further, the EC50 in the series on MC5R (read-out: concentration activating the MC5R) is 0.00099 µM.
Turning to `CC(=O)N[C@H](Cc1ccc2ccccc2c1)C(=O)N[C@@H](CCCNC(=N)N)C(=O)N[C@H](Cc1ccc2ccccc2c1)C(=O)N[C@H](CCCCN)C(N)=O` [Peptide 13, Ac-DNal(2’)-Arg-DNal(2’)-DLys-NH2] (Ac-[d2Nal]R[d2Nal][dK]-NH2), the “selectivity for the mMC4R” value on mMC4R [8] is recorded as “more than 150 fold”. Moreover, the “mMC1R partial agonist percentage of receptor activation relative to NDP-MSH” value on mMC1R was 30 % NDP.
On to `CC(=O)N[C@H](Cc1ccc(I)cc1)C(=O)N[C@@H](CCCNC(=N)N)C(=O)N[C@H](Cc1ccc2ccccc2c1)C(=O)N[C@H](Cc1ccc2ccccc2c1)C(N)=O` [Peptide 38, Ac-DPhe(pI)-Arg-DNal(2’)-DNal(2’)-NH2] (Ac-[dPhe(4-I)]R[d2Nal][d2Nal]-NH2), for which the “mMC5R percent maximal stimulatory response (compared to NDP-MSH)” value at mMC5R was 20% @100μM. Further, at mMC3R [9], the “mMC3R percent maximal stimulatory response (compared to NDP-MSH)” value turned out to be 45% @100μM.
As for Ac-DNal(2’)-Arg-DNal(2’), the IC50 in the series on hMC4R is 0.0365 µM.
For the compound `CC(=O)N[C@H](Cc1ccc(I)cc1)C(=O)N[C@@H](CCCNC(=N)N)C(=O)N[C@@H](Cc1c[nH]c2ccccc12)C(=O)N[C@@H](CCCNC(=N)N)C(N)=O` [Peptide 42, Ac-DPhe(pI)-Arg-Trp-Arg-NH2] (Ac-[dPhe(4-I)]RWR-NH2), at mMC3R [9], the “mMC3R percent maximal stimulatory response (compared to NDP-MSH)” value is recorded as 25% @100μM. Also, the “mMC1R partial agonist percentage of receptor activation relative to NDP-MSH” value at mMC1R is given as 50 % NDP.
In the case of `CC(=O)N[C@@H](Cc1ccc(I)cc1)C(=O)N[C@@H](Cc1ccc2ccccc2c1)C(=O)N[C@@H](Cc1ccc(I)cc1)C(=O)N[C@@H](CCCNC(=N)N)C(N)=O` [Peptide 49, Ac-Phe(pI)-Nal(2’)-Phe(pI)-Arg-NH2] (Ac-[Phe(4-I)][2Nal][Phe(4-I)]R-NH2), at mMC5R, the “mMC5R EC50” value is given as “did not possess agonist activity”. Besides, on mMC1R, the “mMC1R agonist activity in words” value is reported as “partially stimulate”.
On to “Ac-Ser-Tyr-Ser-Nle-Glu-Oic-DBip-Pip-Trp-Gly-Lys-Pro-Val-NH2 (WGKPV; N-terminal Ac-Ser-Tyr-Ser-Nle-Glu-Oic-DBip-Pip; C-terminal amide; printed: Trp-Gly-Lys-Pro-Val-)”, for which the “MC5R agonist potency in words” value with MC5R was “sub-nanomolar MC5R agonist”.
H-RFWG-NH2: in series [7], the “effect on α-MSH-stimulated melanin production” value is recorded as “inhibited α-MSH-stimulated melanin production”.
As to Ac-Oic-DBip-Pip-Trp-NH2, in the series with MC5R (read-out: MC5R agonist potency), the EC50 was 1.2 µM.
With “Ac-Nle-c[Asp-Pro-DNal(2’)-Arg-Trp-Lys]-NH2 [PG901]”, the “hMC5R agonist potency in words” value with hMC5R was “sub-nanomolar agonist potency”.
Turning to `CC(=O)N[C@H](Cc1ccc(I)cc1)C(=O)N[C@@H](CCCNC(=N)N)C(=O)N[C@H](Cc1ccc(I)cc1)C(=O)N[C@H](Cc1ccc2ccccc2c1)C(N)=O` [Peptide 44, Ac-DPhe(pI)-Arg-DPhe(pI)-DNal(2’)-NH2] (Ac-[dPhe(4-I)]R[dPhe(4-I)][d2Nal]-NH2), on mMC5R, the “mMC5R percent maximal stimulatory response (compared to NDP-MSH)” value stood at 65% @100μM. The “mMC3R percent maximal stimulatory response (compared to NDP-MSH)” value on mMC3R [9] stood at 40% @100μM. Besides, the “mMC1R agonist activity in words” value on mMC1R is reported as “full agonist activity”.
As to `CC(=O)N[C@H](Cc1ccc(I)cc1)C(=O)N[C@@H](CCCNC(=N)N)C(=O)N[C@@H](Cc1c[nH]c2ccccc12)C(=O)N[C@H](Cc1ccc2ccccc2c1)C(N)=O` [Peptide 41, Ac-DPhe(pI)-Arg-Trp-DNal(2’)-NH2] (Ac-[dPhe(4-I)]RW[d2Nal]-NH2), the “mMC3R percent maximal stimulatory response (compared to NDP-MSH)” value on mMC3R [9] worked out at 25% @100μM.
As to `NCC(N)=O` [glycinamide], in series [7], the “effect on α-MSH-stimulated melanin production” value is “possessed anti-melanogenic activity”. For the same compound, the “effect on facial skin pigmentation” value in series [10] was “decreased melanin index and skin pigmentation”.
As for `CC(=O)N[C@H](Cc1ccc2ccccc2c1)C(=O)N[C@@H](CCCNC(=N)N)C(=O)N[C@H](Cc1ccc2ccccc2c1)C(=O)N[C@H](Cc1ccc2ccccc2c1)C(N)=O` [Peptide 14, Ac-DNal(2’)-Arg-DNal(2’)-DNal(2’)-NH2] (Ac-[d2Nal]R[d2Nal][d2Nal]-NH2), the “mMC5R percent maximal stimulatory response (compared to NDP-MSH)” value at mMC5R was 20% @100μM. Also, the “mMC3R percent maximal stimulatory response (compared to NDP-MSH)” value on mMC3R [9] was 50% @100μM. For the same compound, the “mMC1R partial agonist percentage of receptor activation relative to NDP-MSH” value at mMC1R is given as 85 % NDP.
For the compound `CC(=O)N[C@H](Cc1ccc2ccccc2c1)C(=O)N[C@@H](CCCNC(=N)N)C(=O)N[C@@H](Cc1c[nH]c2ccccc12)C(=O)N[C@H](CCCCN)C(N)=O` [Peptide 16, Ac-DNal(2’)-Arg-Trp-DLys-NH2] (Ac-[d2Nal]RW[dK]-NH2), the “selectivity for the mMC4R” value at mMC4R [8] is given as “more than 150 fold”.
Regarding `CC(=O)N[C@H](Cc1ccc2ccccc2c1)C(=O)N[C@@H](CCCNC(=N)N)C(=O)N[C@@H](Cc1ccc2ccccc2c1)C(=O)N[C@H](Cc1ccc2ccccc2c1)C(N)=O` [Peptide 23, Ac-DNal(2’)-Arg-Nal(2’)-DNal(2’)-NH2] (Ac-[d2Nal]R[2Nal][d2Nal]-NH2), the “mMC5R percent maximal stimulatory response (compared to NDP-MSH)” value at mMC5R was found to be 25% @100μM. The “mMC3R percent maximal stimulatory response (compared to NDP-MSH)” value on mMC3R [9] is 30% @100μM.

For orientation: IC50 means the concentration needed to halve the response being measured.
